In paper PMC11513842, “Development of an orally bioavailable CDK12/13 degrader and induction of synthetic lethality with AKT pathway inhibition” (Cell Reports Medicine, 2024):
pIC50: −log10 of the molar value. Where “and” joins values, the source holds several entries; their conditions need not be identical. Identical values can stand only once. Like-named read-outs stand apart in the source and are kept apart here.

What was measured:
[1] = test system: VCaP cells; experiment: Comet assay; format: cell-based, human; conditions: 100 nM, 12 h
Experimental: VCaP cells were seeded in 6-well plates one day prior to treatment. […] After 12 h incubation, the cells were trypsinized and resuspended at a concentration of 1 × 10^5 cells/mL in ice-cold PBS. The OxiSelect Comet Assay Kit (Cell Biolabs, STA-351) was used to assess DNA damage. Following the manufacturer’s protocol, cells were combined with pre-heated comet agarose at a 1:10 ratio, mixed thoroughly, and then transferred onto slides. The slides were incubated horizontally in the dark at 4°C for 20 min. Afterward, they were immersed in pre-chilled lysis buffer for 40 min at 4°C in the dark, followed by a 30-min incubation in pre-chilled alkaline solution at 4°C in the dark. Electrophoresis was then performed using alkaline solution at 30 V for 20 min. After electrophoresis, the slides were rinsed three times with pre-chilled deionized water, following with 70% ethanol for 5 min and completely dried at 37°C for 30 min. Subsequently, 100 μL of diluted Vista Green DNA dye was applied to each well. After 15 min incubation at room temperature, the comets were observed using a fluorescence microscope and quantified using ImageJ. The quantification figure was generated using GraphPad Prism software.

[2] = test system: MDA-MB-468; experiment: Cell viability assay (CellTiter-Glo, 5 days); format: cell-based; conditions: Homo sapiens, 120 h; MDA-MB-468, 5 days of treatment, Figure 1F
Experimental: (§1) Cells were seeded in 96-well plates and incubated at 37°C with 5% CO2 overnight. A series of compound dilutions were added into the cells. After 5 days incubation, cell proliferation was tested using the CellTiter-Glo assay (Promega) according to the manufacturer’s protocol. Luminescence was measured using the Infinite M1000 Pro plate reader (Tecan). Data analysis was conducted using GraphPad Prism software.

[3] = test system: PNT2; experiment: Cell viability assay (CellTiter-Glo, 5 days); format: cell-based; conditions: Homo sapiens, 120 h; PNT2, 5 days of treatment, Figure 1F
Experimental: as §1

[4] = test system: MCF10A; experiment: Cell viability assay (CellTiter-Glo, 5 days); format: cell-based; conditions: Homo sapiens, MCF-10A, 120 h, 5 days of treatment, Figure 1F
Experimental: as §1

[5] = test system: MFM223; experiment: Cell viability assay (CellTiter-Glo, 5 days); format: cell-based; conditions: Homo sapiens, MFM-223, 120 h; MFM223, 5 days of treatment, Figure 1F
Experimental: as §1

[6] = test system: DU145; experiment: Cell viability assay (CellTiter-Glo, 5 days); format: cell-based; conditions: Homo sapiens, DU-145, 120 h; DU145, 5 days of treatment, Figure 1F
Experimental: as §1

[7] = test system: MCF7; experiment: Cell viability assay (CellTiter-Glo, 5 days); format: cell-based; conditions: Homo sapiens, 120 h; MCF7, 5 days of treatment, Figure 1F
Experimental: as §1

[8] = test system: SK-BR-3; experiment: Cell viability assay (CellTiter-Glo, 5 days); format: cell-based; conditions: Homo sapiens, 120 h; SK-BR-3, 5 days of treatment, Figure 1F
Experimental: as §1

[9] = test system: WPMY-1; experiment: Cell viability assay (CellTiter-Glo, 5 days); format: cell-based; conditions: Homo sapiens, 120 h; WPMY-1, 5 days of treatment, Figure 1F
Experimental: as §1

[10] = test system: PrEC; experiment: Cell viability assay (CellTiter-Glo, 5 days); format: cell-based; conditions: Homo sapiens, 120 h, 5 days of treatment, Figure 1F
Experimental: as §1

[11] = test system: MCF12A; experiment: Cell viability assay (CellTiter-Glo, 5 days); format: cell-based; conditions: Homo sapiens, MCF-12A, 120 h, 5 days of treatment, Figure 1F
Experimental: as §1

[12] = test system: 22RV1; experiment: Cell viability assay (CellTiter-Glo, 5 days); format: cell-based; conditions: Homo sapiens, 120 h; 22RV1, 5 days of treatment, Figure 1F
Experimental: as §1

[13] = test system: BPH-1; experiment: Cell viability assay (CellTiter-Glo, 5 days); format: cell-based; conditions: Homo sapiens, 120 h; BPH-1, 5 days of treatment, Figure 1F
Experimental: as §1

[14] = test system: RWPE1; experiment: Cell viability assay (CellTiter-Glo, 5 days); format: cell-based; conditions: Homo sapiens, RWPE-1, 120 h; RWPE1, 5 days of treatment, Figure 1F
Experimental: as §1

[15] = test system: PC3; experiment: Cell viability assay (CellTiter-Glo, 5 days); format: cell-based; conditions: Homo sapiens, PC-3, 120 h; PC3, 5 days of treatment, Figure 1F
Experimental: as §1

[16] = test system: CWR22RV1; experiment: Cell viability assay (CellTiter-Glo, 5 days); format: cell-based; conditions: Homo sapiens, 120 h; CWR22RV1, 5 days of treatment, Figure 1F
Experimental: as §1

[17] = test system: LAPC4; experiment: Cell viability assay (CellTiter-Glo, 5 days); format: cell-based; conditions: Homo sapiens, 120 h; LAPC4, 5 days of treatment, Figure 1F
Experimental: as §1

[18] = test system: VCaP cells; experiment: Cell viability assay (CellTiter-Glo, 5 days); format: cell-based, human
Experimental: as §1

[19] = test system: CDK12 and CDK13; conditions: VCaP cells
Experimental: After treatment of varying conditions, cell lysates were prepared using RIPA buffer (ThermoFisher Scientific) supplemented with cOmplete protease inhibitor cocktail tablets (Sigma-Aldrich). The Pierce BCA Protein Assay Kit ([…]) was used to determine the protein concentrations. Proteins with an equal amount from each sample were loaded on NuPAGE 3–8% Tris-Acetate or 4–12% Bis-Tris protein gels (ThermoFisher Scientific) and subsequently transferred to membranes, which were blocked using 5% nonfat milk. Following blocking at room temperature for 1 h, the membrane was further incubated with varying primary antibodies at 4°C overnight. HRP-conjugated secondary antibodies were used for detection, and membrane imaging was conducted using an Odyssey Fc Imager (LI-COR Biosciences).

[20] = Pharmacokinetic profile in Sprague Dawley rats; format: in vivo, rat; conditions: SD rats
[21] = VCaP cell viability, linker optimization, Figure S4B, read-out: VCaP IC50

SMILES: CN(C)C/C=C/C(=O)Nc1ccc(C(=O)N2CCC[C@@H](Nc3ncc(Cl)c(-c4c[nH]c5ccccc45)n3)C2)cc1 [THZ531, reference compound]
- DNA damage (tail moment) [1]: significant increase in the tail moment
- pIC50 [2]: 6.80
- pIC50 [3]: 5.82
- pIC50 [4]: 6.40
- pIC50 [5]: 7.48
- pIC50 [6]: 6.64
- pIC50 [7]: 6.45
- pIC50 [8]: 7.19
- pIC50 [9]: 6.51
- pIC50 [10]: 6.47
- pIC50 [11]: 6.51
- pIC50 [12]: 7.07
- pIC50 [13]: 6.45
- pIC50 [14]: 6.39
- pIC50 [15]: 6.92
- pIC50 [16]: 7.16
- pIC50 [17]: 8.20
- pIC50 ([18]; Homo sapiens, VCaP, 120 h, VCaP, 5 days of treatment, Figure 1F, read-out: IC50): 7.47

SMILES: CN1C(=O)CCC(N2C(=O)c3cccc(OCC(=O)N4CCN(c5ccc(N(C(=O)NCc6ccccc6)C6CCC(Nc7ncc8ccccc8n7)CC6)cc5)CC4)c3C2=O)C1=O (stereo not drawn) [YJ1078]
- CDK12/13 degradation (immunoblot) [19]: did not affect target protein levels
- pIC50 ([18]; VCaP cells, 5 days, Figure S1E, read-out: IC50): < 5.52

SMILES: O=C1CCC(N2C(=O)c3ccc(OCC(=O)N4CCN(c5ccc(N(C(=O)NCc6ccccc6)C6CCC(Nc7ncc8ccccc8n7)CC6)cc5)CC4)cc3C2=O)C(=O)N1 (stereo not drawn) [YJ1090]
- CDK12/13 degradation (immunoblot) [19]: retained the CDK12/13 degradation abilities
- pIC50 [18, 21]: 7.03

SMILES: O=C1CCC(N2Cc3ccc(OCC(=O)N4CCN(c5ccc(N(C(=O)NCc6ccccc6)C6CCC(Nc7ncc8ccccc8n7)CC6)cc5)CC4)cc3C2=O)C(=O)N1 (stereo not drawn) [YJ1094]
- CDK12/13 degradation (immunoblot) [19]: retained the CDK12/13 degradation abilities
- pIC50 [18, 21]: 7.60

SMILES: O=C1CCC(N2C(=O)c3ccc(N4CCC(N5CCN(c6ccc(N(C(=O)NCc7ccccc7)C7CCC(Nc8ncc9ccccc9n8)CC7)cc6)CC5)C4)cc3C2=O)C(=O)N1 (stereo not drawn) [YJ1096]
- CDK12/13 degradation (immunoblot) [19]: significantly decreased CDK12/13 degradation and cell viability
- pIC50 [18, 21]: 7.01

SMILES: O=C1CCC(N2C(=O)c3ccc(N4CCC(N5CCN(c6ccc(N(C(=O)NCc7ccccc7)C7CCC(Nc8ncc9ccccc9n8)CC7)cc6)CC5)CC4)cc3C2=O)C(=O)N1 (stereo not drawn) [YJ1105]
- AUC(0-t) ([20]; i.v. 2.5 mg/kg): 8039.69 ng·h/mL
- CL ([20]; i.v. 2.5 mg/kg): 4.8027 mL/min/kg
- Cmax ([20]; i.v. 2.5 mg/kg): 1580 nM
- T1/2 ([20]; i.v. 2.5 mg/kg): 7.05 h
- Tmax ([20]; i.v. 2.5 mg/kg): 0.08 h
- AUC(0-) ([20]; oral 10 mg/kg): 9805.4 ng·h/mL
- AUC(0-t) ([20]; oral 10 mg/kg): 8567.43 ng·h/mL
- Cmax ([20]; oral 10 mg/kg): 715 nM
- T1/2 ([20]; oral 10 mg/kg): 7.2 h
- Tmax ([20]; oral 10 mg/kg): 6 h
- F(%) (bioavailability by oral gavage) ([20]; oral 10 mg/kg vs i.v. 2.5 mg/kg): 26.64%
- CDK12/13 degradation (immunoblot) [19]: potent degradation effects
- pIC50 [18, 21]: 7.82 and > 7.70
